Values of other authors as cited in patent US20090137457A1, “Pyrimidinedione derivatives” (CoNCERT Pharmaceuticals, Inc., priority 2007, published 2009).

Details: Phase I and II clinical trials; Christopher R et al., ADA 2007 (Abs 0495-P)

For Cn1c(=O)cc(N2CCC[C@@H](N)C2)n(Cc2ccccc2C#N)c1=O [Alogliptin], which “tolerability in clinical trials” value is on record?
The value was “generally well tolerated”.
